One data set concerns the target PSMA (Homo sapiens, UniProt Q04609). Kind of data set: Determination of IC50: competitive binding against ([125I]I-BA)KuE on cells. Also noted: endogenous in cells; LNCaP is named only for the xenografts. As to conditions: for IC50: natLu complexes, displacement of ([125I]I-BA)KuE, 60 min on ice, HBSS (1% BSA). On the procedure:
The corresponding ^natLu^III-complexes were prepared from a 2 mM aqueous solution of the PSMA inhibitor with a 2.5 molar excess of LuCl3 (20 mM solution), heated to 95 °C for 30 min. After cooling, the ^natLu^III-chelate formation was confirmed using HPLC and MS. […] Calculated monoisotopic mass (C67H92N11O23 Lu) = 1,593.6 found: m/z = 1,595.0 [M+H]^+, 798.2 [M+2H]^2+. [^natLu]DOTAGA-(4-NH2)f-y-nal-k-KuE ([^natLu]PSMA-5): HPLC (10 to 60% B in 15 min.): tR = 9.0 min K' = 3.5. Calculated monoisotopic mass (C76H102N13O24 Lu) = 1,755.7 found: m/z = 1,756.4 [M+H]^+, 879.0 [M+2H]^2+. [^natLu]DOTAGA-(4-NH2)F-y-nal-k-KuE ([^natLu]PSMA-6): HPLC (10 to 60% B in 15 min.): tR = 9.1 min K' = 3.6. Calculated monoisotopic mass (C76H102N13O24 Lu) = 1,755.7 found: m/z = 1,756.6 [M+H]^+, 878.8 [M+2H]^2+. [^natLu]DOTAGA-y-nal-k(Suc-(HO-δ-orn-γ-EuE))-OH ([^natLu]PSMA-7): HPLC (10 to 60 % B in 15 min): tR = 7.8 min K' = 2.9. Calculated monoisotopic mass (C67H89N12O26 Lu): 1,652.5 found: m/z = 1,653.9 [M+H]^+. [^natLu]DOTAGA-(4-NH2)f-y-nal-k(Suc-(HO-δ-orn-γ-EuE))-OH ([^natLu]PSMA-8): HPLC (10 to 60 % B in 15 min): tR = 7.3 min K' = 2.7. Calculated monoisotopic mass (C67H99N14O27Lu): 1,814.6 found: m/z = 1,815.9 [M+H]^+, 908.3 [M+2H]^2+. [^natLu]DOTAGA-(4-NH2)F-y-nal-k(Suc-(HO-δ-orn-γ-EuE))-OH ([^natLu]PSMA-9): HPLC (10 to 60 % B in 15 min): tR = 7.2 min K' = 2.6. Calculated monoisotopic mass (C67H99N14O27Lu): 1,814.6 found: m/z = 1,815.6 [M+H]^+, 908.3 [M+2H]^2+. [^natLu]DOTAGA-y-nal-k(Glut-(l-f)-KuE) ([^natLu]PSMA-10): HPLC (25 to 55% B in 15 min): tR = 10.6 min K' = 4.9. Calculated monoisotopic mass (C73H94IN12O24Lu): 1,825.5 found: m/z = 1,826.5 [M+H]^+, 913.8 [M+2H]^2+. [^natLu]DOTAGA-(4-NH2)f-y-nal-k(Glut-(l-f)-KuE) ([^natLu]PSMA-11): HPLC (10 to 60% B in 20 min): tR = 9.7 min K' = 3.9. Calculated monoisotopic mass (C82H104IN14O25Lu): 1,986.6 found: m/z = 1,987.5 [M+H]^+, 994.3 [M+2H]^2+.
The reaction solution was incubated for 10 min at RT, loaded on a cartridge and rinsed with 10 mL water (C18 Sep Pak Plus cartridge, preconditioned with 10 mL MeOH and 10 mL water). After elution with 2.0 mL of a 1:1 mix (v/v) of EtOH/MeCN, the radioactive solution was evaporated to dryness under a gentle nitrogen stream and treated with 200 µL TFA for 30 min with subsequent evaporation of TFA.
After removal of the culture medium, the cells were treated once with 500 µL of HBSS (Hank's balanced salt solution, Biochrom, Berlin, Germany, with addition of 1% bovine serum albumin (BSA)) and left 15 min on ice for equilibration in 200 µL HBSS (1% BSA). […] All experiments were performed at least three times for each concentration. After 60 min incubation on ice, the experiment was terminated by removal of the medium and consecutive rinsing with 200 µL of HBSS. The media of both steps were combined in one fraction and represent the amount of free radioligand. Afterwards, the cells were lysed with 250 µL of 1.0 M NaOH and united with the 200 µL HBSS of the following wash step. Quantification of bound and free radioligand was accomplished in a γ-counter.

A further data set concerns LNCaP xenograft. More on the design: species or system SCID mice. The following applies: mouse, in vivo. On the procedure:
(§1) All animal experiments were carried out in accordance with the general animal welfare regulations in Germany (Deutsches Tierschutzgesetz, approval #55.2-1-54-2532-71-13). For the tumor model, LNCaP cells (approx. 10^7 cells) were suspended 1:1 in serum-free DMEM-F12 medium and Matrigel (BD Biosciences, Germany) and inoculated onto the right shoulder of male, 6 to 8 weeks old CB-17 SCID mice (Charles River Laboratories, Sulzfeld, Germany). Animals were used after the tumor size reached 4 to 8 mm in diameter for experiments.

Details of data set [1]: species or system SCID mice. As to conditions: mouse, in vivo. On the procedure: as §1
Imaging experiments were conducted using a Siemens Inveon small animal PET and data analyzed by the associated Inveon Research Workplace software. Mice were anaesthetised with isoflurane and the ^68Ga-radiolabeled PSMA inhibitors (0.2 nmol, 7.0 to 12 MBq) were injected via tail vein. Dynamic imaging was carried out after on-bed injection for 90 min. The static blockade image was obtained, after 1 h p.i. with 15 min acquisition time. Blockade was done by coinjection of 8mg/kg of PMPA. All images were reconstructed using an OSEM3D algorithm without […] and attenuation correction.

Square brackets hold non-standard residues; d marks the D form. Peptide text beside a SMILES is read from it. * marks the point of attachment. X1 = O=C(O)CC[C@H](NC(=O)N[C@@H](CCCCNC(=O)CCCCCCC(=O)*)C(=O)O)C(=O)O; DOTAGA = O=C(O)CN1CCN(CC(=O)O)CCN(C(CCC(=O)*)C(=O)O)CCN(CC(=O)O)CC1; dPhe(4-NH2) = Nc1ccc(C[C@@H](N)C(=O)O)cc1; dTyr(3-I) = N[C@H](Cc1ccc(O)c(I)c1)C(=O)O; Phe(4-NH2) = Nc1ccc(C[C@H](N)C(=O)O)cc1; d2Nal = N[C@H](Cc1ccc2ccccc2c1)C(=O)O

Chain of PSMA (Q04609 whole entry): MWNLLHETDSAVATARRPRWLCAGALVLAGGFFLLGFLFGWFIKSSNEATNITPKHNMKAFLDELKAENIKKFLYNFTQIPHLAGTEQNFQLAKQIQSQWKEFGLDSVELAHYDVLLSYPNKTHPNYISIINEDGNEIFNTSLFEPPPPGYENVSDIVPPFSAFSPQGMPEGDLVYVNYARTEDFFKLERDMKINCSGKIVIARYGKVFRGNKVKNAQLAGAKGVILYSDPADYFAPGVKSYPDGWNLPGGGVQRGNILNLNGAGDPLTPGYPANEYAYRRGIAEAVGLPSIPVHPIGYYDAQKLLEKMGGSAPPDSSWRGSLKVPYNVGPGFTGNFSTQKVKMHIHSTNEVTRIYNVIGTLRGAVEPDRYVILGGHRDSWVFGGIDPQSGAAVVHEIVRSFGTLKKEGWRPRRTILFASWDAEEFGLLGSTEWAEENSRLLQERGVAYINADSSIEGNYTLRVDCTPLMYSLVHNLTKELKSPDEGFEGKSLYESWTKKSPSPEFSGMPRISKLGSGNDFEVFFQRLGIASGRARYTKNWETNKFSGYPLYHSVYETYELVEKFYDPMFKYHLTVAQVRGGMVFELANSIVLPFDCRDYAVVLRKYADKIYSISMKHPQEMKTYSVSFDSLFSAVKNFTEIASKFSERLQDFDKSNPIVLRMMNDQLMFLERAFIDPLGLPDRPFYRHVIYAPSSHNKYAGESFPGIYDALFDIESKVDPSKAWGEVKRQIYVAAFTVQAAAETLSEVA

Consider `O=C(O)CC[C@H](NC(=O)N[C@@H](CCCCNC(=O)CCCCCCC(=O)NCCCC[C@@H](NC(=O)[C@@H](Cc1ccc2ccccc2c1)NC(=O)[C@@H](Cc1ccc(O)cc1)NC(=O)CCC(C(=O)O)N1CCN(CC(=O)O)CCN(CC(=O)O)CCN(CC(=O)O)CC1)C(=O)O)C(=O)O)C(=O)O` (stereo partly drawn) [[^nat/177Lu]PSMA-4, DOTAGA-y-nal-k-KuE, metal not drawn, reference compound], for which the IC50 (usually the concentration that gives 50% inhibition) at PSMA came out at 2.1 ± 0.8 nM.
As to `Nc1ccc(C[C@H](NC(=O)CCC(C(=O)O)N2CCN(CC(=O)O)CCN(CC(=O)O)CCN(CC(=O)O)CC2)C(=O)N[C@H](Cc2ccc(O)c(I)c2)C(=O)N[C@H](Cc2ccccc2)C(=O)N[C@H](CCCCNC(=O)CCCCCCC(=O)NCCCC[C@H](NC(=O)N[C@@H](CCC(=O)O)C(=O)O)C(=O)O)C(=O)O)cc1` (stereo partly drawn) [[^nat/177Lu]PSMA-3, DOTAGA-(4-NH2)F-(l-y)-f-k-KuE, metal not drawn] ({DOTAGA}-[Phe(4-NH2)][dTyr(3-I)][dF][dK](X1)-OH), the Increased tumor uptake entry in the data set on LNCaP xenograft is given as “about 200%”. At PSMA, the IC50 was 2.8 ± 0.3 nM.
On to `Nc1ccc(C[C@H](NC(=O)CCC(C(=O)O)N2CCN(CC(=O)O)CCN(CC(=O)O)CCN(CC(=O)O)CC2)C(=O)N[C@H](Cc2ccc(O)cc2)C(=O)N[C@H](Cc2ccc3ccccc3c2)C(=O)N[C@H](CCCCNC(=O)CCCCCCC(=O)NCCCC[C@H](NC(=O)N[C@@H](CCC(=O)O)C(=O)O)C(=O)O)C(=O)O)cc1` (stereo partly drawn) [[^nat/177Lu]PSMA-6, DOTAGA-(4-NH2)F-y-nal-k-KuE, metal not drawn] ({DOTAGA}-[Phe(4-NH2)][dY][d2Nal][dK](X1)-OH), for which, on PSMA, the IC50 amounted to 1.1 ± 0.1 nM. The “affinity, fold higher than [Lu]PSMA DKFZ 617” value at PSMA (relative to [Lu]PSMA DKFZ 617) is given as “more than 3 fold”. Further, the “affinity, fold higher than [Lu]PSMA I&T” value on PSMA (relative to [Lu]PSMA I&T) is listed as “around 7 fold”.
For the compound `Nc1ccc(C[C@@H](NC(=O)CCC(C(=O)O)N2CCN(CC(=O)O)CCN(CC(=O)O)CCN(CC(=O)O)CC2)C(=O)N[C@H](Cc2ccc(O)c(I)c2)C(=O)N[C@H](Cc2ccccc2)C(=O)N[C@H](CCCCNC(=O)CCCCCCC(=O)NCCCC[C@H](NC(=O)N[C@@H](CCC(=O)O)C(=O)O)C(=O)O)C(=O)O)cc1` (stereo partly drawn) [[^nat/177Lu]PSMA-2, DOTAGA-(4-NH2)f-(l-y)-f-k-KuE, metal not drawn] ({DOTAGA}-[dPhe(4-NH2)][dTyr(3-I)][dF][dK](X1)-OH), in data set [1], the kidney clearance result is recorded as “accelerated kidney clearance”. Moreover, the IC50 at PSMA was 2.3 ± 0.6 nM.
As for `O=C(O)CC[C@H](NC(=O)N[C@@H](CCCCNC(=O)[C@@H](Cc1ccc(I)cc1)NC(=O)CCCC(=O)NCCCC[C@@H](NC(=O)[C@@H](Cc1ccc2ccccc2c1)NC(=O)[C@@H](Cc1ccc(O)cc1)NC(=O)CCC(C(=O)O)N1CCN(CC(=O)O)CCN(CC(=O)O)CCN(CC(=O)O)CC1)C(=O)O)C(=O)O)C(=O)O` (stereo partly drawn) [[^nat/177Lu]PSMA-10, DOTAGA-y-nal-k(Glut-(l-f)-KuE), metal not drawn, reference compound], the IC50 on PSMA was found to be 6.1 ± 1.6 nM.

The record behind these values is EP3494999A1, “PSMA LIGANDS FOR IMAGING AND ENDORADIOTHERAPY” (Technische Universität München, priority 2017, dated 2019).
